# Data taken from the supplement of paper PMC11061612.
# Columns and labels:
# [1] = test system: NAMALWA (Burkitt's Lymphoma); assay: combination Emax (second highest fraction inhibited in the dose matrix, 72 h); higher = more inhibition; extreme values may be limits of the assay
# Summary of the method: (§1)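 After 24 hours at 37°C and 5% CO2 in 1536-well plates, cells in DMEM/F12 or RPMI plus 10% FBS received two-drug dose matrices for 72 hours. Viability came from CellTiter-Glo 2.0 luminescence and was scaled as inhibition, anchored at 0 by vehicle wells and at 1 by blank wells. Combination Emax is taken as the second-highest inhibition in the matrix, and Bliss excess as the observed combination effect less EA + EB − EA·EB, with EA and EB the single-agent effects.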
# NB1 (Neuroblastoma) = assay: as above
# Summary of the method: as §1
# [2] = test system: T84 (Colorectal Carcinoma); assay: as above
# Summary of the method: as §1
# [3] = test system: BxPC-3 (Pancreatic Carcinoma); assay: as above
# Summary of the method: as §1
# [4] = test system: C-33-A (Cervical Carcinoma); assay: as above
# Summary of the method: as §1
# [5] = test system: NCI-H1341 (Small Cell Lung Carcinoma); assay: as above
# Summary of the method: as §1
# [6] = test system: DBTRG-05MG (Glioblastoma); assay: as above
# Summary of the method: as §1
# [7] = test system: SAT (Head and Neck Carcinoma); assay: as above
# Summary of the method: as §1
# WM35 (Melanoma) = assay: as above
# Summary of the method: as §1
# [8] = test system: SKG-IIIa (Cervical Carcinoma); assay: as above
# Summary of the method: as §1
# [9] = test system: HT-1080 (Other Solid Carcinomas); assay: as above
# Summary of the method: as §1
# [10] = test system: HPAF-II (Pancreatic Carcinoma); assay: as above
# Summary of the method: as §1
# [11] = test system: SNU-423 (Hepatocellular Carcinoma); assay: as above
# Summary of the method: as §1
# [12] = test system: ZR-75-30 (Breast Carcinoma); assay: as above
# Summary of the method: as §1
# NCI-H2373 (Mesothelioma) = assay: as above
# Summary of the method: as §1
# [13] = test system: HPAF-II (Pancreatic Carcinoma); assay: Bliss excess, mean over the matrix (fraction); higher = more synergy
# Summary of the method: as §1
# 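Wherever Bliss excess, mean over the matrix is given: after 72 h of two-drug dosing.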
Structure (SMILES),combination Emax [1],combination Emax (NB1 (Neuroblastoma)),combination Emax [2],combination Emax [3],combination Emax [4],combination Emax [5],combination Emax [6],combination Emax [7],combination Emax (WM35 (Melanoma)),combination Emax [8],combination Emax [9],combination Emax [10],combination Emax [11],combination Emax [12],combination Emax (NCI-H2373 (Mesothelioma)),Bliss excess [13]
"NC1(C(=O)N[C@@H](CCO)c2ccc(Cl)cc2)CCN(c2ncnc3[nH]ccc23)CC1 [Capivasertib] + CC(=O)c1c(C)c2cnc(Nc3ccc(N4CCNCC4)cn3)nc2n(C2CCCC2)c1=O [Palbociclib] (first compound max 10 µM, 7x7, partner max 10 µM)",0.701,0.697,0.267,0.23,0.679,0.506,0.23,0.662,0.263,0.27,0.101,0.197,0.458,0.396,0.538,0.0187
"NC1(C(=O)N[C@@H](CCO)c2ccc(Cl)cc2)CCN(c2ncnc3[nH]ccc23)CC1 [Capivasertib] + CC(C)n1c(=O)n(C)c2cnc3cc(F)c(-c4ccc(OCCCN5CCCCC5)nc4)cc3c21 [AZD1390] (first compound max 10 µM, 7x7, partner max 0.3 µM)",0.44,0.626,0.367,0.181,0.675,0.532,0.243,0.555,0.259,0.244,0.194,0.245,0.503,0.419,0.545,-0.0016
"NC1(C(=O)N[C@@H](CCO)c2ccc(Cl)cc2)CCN(c2ncnc3[nH]ccc23)CC1 [Capivasertib] + CCN(CCO)CCCOc1ccc2c(Nc3cc(CC(=O)Nc4cccc(F)c4)[nH]n3)ncnc2c1 [AZD2811] (first compound max 10 µM, 7x7, partner max 1 µM)",0.713,0.79,0.389,0.241,0.712,0.655,0.317,0.502,0.328,0.374,0.256,0.218,0.571,0.442,0.491,0.0052
"NC1(C(=O)N[C@@H](CCO)c2ccc(Cl)cc2)CCN(c2ncnc3[nH]ccc23)CC1 [Capivasertib] + COc1nnc2ccc(N3CCC(c4ccc(OCCN5CCN(C)C(=O)[C@H]5C)cc4)CC3)nn12 [AZD5153] (first compound max 10 µM, 7x7, partner max 1 µM)",0.961,0.885,0.367,0.399,0.779,0.851,0.206,0.811,0.538,0.43,0.388,0.389,0.513,0.353,0.591,0.0188
"NC1(C(=O)N[C@@H](CCO)c2ccc(Cl)cc2)CCN(c2ncnc3[nH]ccc23)CC1 [Capivasertib] + C[C@@H]1COCCN1C2=NC(=NC(=C2)C3(CC3)[S@](=N)(=O)C)C4=C5C=CNC5=NC=C4 [AZD6738] (first compound max 10 µM, 7x7, partner max 10 µM)",0.937,0.853,0.68,0.429,0.946,0.928,0.372,0.579,0.311,0.5,0.435,0.5,0.586,0.469,0.707,-0.0105
"NC1(C(=O)N[C@@H](CCO)c2ccc(Cl)cc2)CCN(c2ncnc3[nH]ccc23)CC1 [Capivasertib] + Cn1cnc2c(F)c(Nc3ccc(Br)cc3Cl)c(C(=O)NOCCO)cc21 [Selumetinib] (first compound max 10 µM, 7x7, partner max 10 µM)",0.387,0.776,0.539,0.426,0.803,0.728,0.431,0.677,0.782,0.435,0.466,0.75,0.491,0.501,0.664,0.0623
"Cc1nc(Nc2ncc(C(=O)Nc3c(C)cccc3Cl)s2)cc(N2CCN(CCO)CC2)n1 [Dasatinib] + CC(=O)Nc1cccc(-n2c(=O)n(C3CC3)c(=O)c3c(Nc4ccc(I)cc4F)n(C)c(=O)c(C)c32)c1 [Trametinib] (first compound max 2 µM, 7x7, partner max 1 µM)",0.407,0.139,0.816,0.868,0.642,0.425,0.556,0.826,0.837,0.5,0.61,0.928,0.832,0.0302,0.391,0.0843
